Test results: PubChem BioAssay (NCI)
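Cells were grown in 96-well plates and exposed to each compound for 48 hours at five concentrations; endpoints were interpolated linearly between bracketing concentrations, or set to the highest concentration if not reached. GI50 = concentration required for 50% inhibition of growth. Definition used: TGI = concentration required for complete inhibition of growth.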

Assays:
Test in all cases: NCI tumour cell line growth inhibition, 48 h
786-0 renal = system: 786-0 renal
MDA-MB-231 breast = system: MDA-MB-231 breast
MOLT-4 leukemia = system: MOLT-4 leukemia
NCI-H460 lung = system: NCI-H460 lung
NCI/ADR-RES ovarian = system: NCI/ADR-RES ovarian
SK-MEL-2 melanoma = system: SK-MEL-2 melanoma
T-47D breast = system: T-47D breast
U251 CNS = system: U251 CNS
UO-31 renal = system: UO-31 renal

Row | SMILES | TGI (786-0 renal) [µM] | TGI (MDA-MB-231 breast) [µM] | TGI (MOLT-4 leukemia) [µM] | TGI (NCI-H460 lung) [µM] | TGI (NCI/ADR-RES ovarian) [µM] | TGI (SK-MEL-2 melanoma) [µM] | TGI (T-47D breast) [µM] | TGI (U251 CNS) [µM] | TGI (UO-31 renal) [µM] | GI50 (NCI-H460 lung) [µM]
1 | Clc1nc(Nc2nc3ccccc3[nH]2)nc(Cl)c1Cc1ccccc1 | > 100 | > 100 | > 100 | > 100 | > 100 | > 100 | > 100 | > 100 | > 100 | 
2 | Cc1ccnc(NC(=S)Nc2cccc(Cl)c2)c1 | > 100 |  | > 100 | > 100 | > 100 | > 100 | > 100 | > 100 | > 100 | 
3 | O/N=C1\CCc2nonc2\C1=N/Nc1ccccc1 | > 100 | > 100 | > 100 | > 100 | > 100 | > 100 | > 100 | > 100 | > 100 | 
4 | COc1cc2c(cc1C)NC(=O)/C2=C\c1ccncc1 | 18.8 |  |  | 41.7 | 10.7 | 10.1 | 16.8 | 18.6 | 18.3 | 
5 | CC(C)=Nn1cnc(C(=N)C#N)c1N | > 100 |  | > 100 | > 100 | > 100 | > 100 |  | > 100 | > 100 | 
6 | Cc1ccc(SC[C@@]2(C(F)F)NC(=O)NC2=O)cc1 | > 100 | > 100 | > 100 | > 100 | > 100 | > 100 | > 100 | > 100 | > 100 | 
7 | CCC(=O)NC(OCC1(CC)COC1)(C(F)(F)F)C(F)(F)F |  | > 100 | > 100 | > 100 |  | > 100 | > 100 | > 100 | > 100 | 
8 | COP(=O)(OC)C(NC=O)P(=O)(OC)OC | > 100 | > 100 | > 100 | > 100 | > 100 |  | > 100 | > 100 | > 100 | 
9 | O=C1c2ccccc2-c2nc(-c3ccccc3)cc3c2c1nc1ccccc13 | > 100 | 59.3 | 36.4 |  | 47.1 | 51.4 | > 100 | 39.6 | 84.1 | 
10 | Cc1ccc(N=C2SC(c3ccc(C)cc3)(c3ccc(C)cc3)c3ccccc32)cc1 | > 100 | > 100 | > 100 | > 100 | > 100 | > 100 | > 100 | > 100 | > 100 | 
11 | COc1cc(OC)c2c(O)c(S(=O)(=O)c3ccc(C)cc3)c(=O)oc2c1 | > 100 | > 100 | > 100 | > 100 | > 100 | > 100 | > 100 | > 100 | > 100 | 
12 | CN(C)Cc1cc(C(=O)/C=C/c2cccc(Cl)c2)cc(CN(C)C)c1O | 15.7 | 8.87 | 14.1 | 11.4 | > 100 | 26 | 19.9 | 12.3 | 19.5 | 
13 | COC(=O)/C(=C\c1ccco1)P(=O)(OC)OC | > 100 | > 100 | > 100 | > 100 | > 100 | 83.4 | > 100 | > 100 |  | 
14 | CCOP(=O)(OCC)C1(O)CC(n2cc(C)c(=O)[nH]c2=O)OC1CO (centres undefined) | > 100 |  |  | > 100 | > 100 | > 100 | > 100 | > 100 | > 100 | 
15 | COc1cc(OC)cc(-n2c(N)c(-c3nc4ccccc4n3C)c3ccc([N+](=O)[O-])cc3c2=O)c1 | > 100 | > 100 |  | > 100 | > 100 | > 100 | > 100 | > 100 | > 100 | 
16 | Cn1c2c(c3ccccc31)CCN1C(=O)C3SC21C1C(=O)N(c2ccccc2)C(=O)C31 (centres undefined) | > 100 | > 100 | > 100 | > 100 | > 100 |  | > 100 | > 100 | > 100 | 90.6
17 | CC(=O)C12C[C@](C#N)(N3CCCCCC3)C1C=Cc1ccccc12 (some centres undefined) | > 100 | > 100 | > 100 | > 100 | > 100 |  | > 100 | > 100 | > 100 | 
18 | N#CC1(c2ccccc2)CCN(C2(c3ccccc3)CCCCC2)CC1 | > 100 | > 100 | > 100 |  | > 100 | > 100 | > 100 | > 100 | > 100 | 
19 | COc1ccc2c(c1)CC1Cc3ccccc3CCN1C2 (centres undefined) |  | 63.6 | > 100 | > 100 | > 100 | > 100 | > 100 | > 100 | > 100 | 
20 | CCN1CCCC(Nc2cc(C)nc(/N=C(/N)Nc3ccc(Cl)c(Cl)c3)n2)C1 (centres undefined) | 2.95 | 3.84 | 2.42 | 2.93 | 8.58 | 4.04 |  | 2.6 | 2.18 | 
21 | CCOC(=O)c1c(NCc2ccccc2)n(-c2ccccc2)c(=S)n(-c2ccccc2)c1=O | > 100 | > 100 | > 100 | > 100 |  | > 100 | > 100 | > 100 | > 100 | 
22 | Oc1ccc(Cl)cc1C1=N/C(=N\C/N=C2\N=C(c3cc(Cl)ccc3O)CC(c3ccccc3)N2)NC(c2ccccc2)C1 (centres undefined) | > 100 | > 100 |  | > 100 | > 100 | > 100 |  | > 100 | > 100 | 
23 | CSCCCNC(=O)c1csc(-c2csc(CCNC(=O)CNC(=O)CNC(=O)CNC(=O)OC(C)(C)C)n2)n1 | > 100 | > 100 | > 100 | > 100 | > 100 | > 100 |  | > 100 | > 100 | 
24 | CC(C)(C)OC(=O)NCC(=O)NC1C/C(=N\O)c2sccc21 (centres undefined) |  | > 100 | > 100 | > 100 | > 100 | > 100 | > 100 | > 100 | > 100 | 
